#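 GI50 = concentration required for 50% inhibition of growth. The concentration for full growth arrest is given as TGI.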
# Tests used:
# Assay in all cases: inhibition of tumour cell growth, NCI panel, 384-well format
# HCT-15 colon = test system: HCT-15 colon
# SF-539 CNS = test system: SF-539 CNS
# OVCAR-3 ovarian = test system: OVCAR-3 ovarian
# IGROV1 ovarian = test system: IGROV1 ovarian
# T-47D breast = test system: T-47D breast
# KM12 colon = test system: KM12 colon
# CCRF-CEM leukemia = test system: CCRF-CEM leukemia
# M14 melanoma = test system: M14 melanoma
# ACHN renal = test system: ACHN renal
# PC-3 prostate = test system: PC-3 prostate
# MOLT-4 leukemia = test system: MOLT-4 leukemia
# COLO 205 colon = test system: COLO 205 colon
# A549 NSCLC = test system: A549 NSCLC
# UO-31 renal = test system: UO-31 renal
# SK-MEL-5 melanoma = test system: SK-MEL-5 melanoma
# MDA-MB-231 breast = test system: MDA-MB-231 breast
# NCI-H460 NSCLC = test system: NCI-H460 NSCLC
# HOP-62 NSCLC = test system: HOP-62 NSCLC
# SNB-75 CNS = test system: SNB-75 CNS
# MALME-3M melanoma = test system: MALME-3M melanoma
# UACC-257 melanoma = test system: UACC-257 melanoma
# HCC-2998 colon = test system: HCC-2998 colon
# MCF7 breast = test system: MCF7 breast
# NCI-H322M lung = test system: NCI-H322M lung
# SN12C renal = test system: SN12C renal
# NCI-H23 lung = test system: NCI-H23 lung
# LOX IMVI melanoma = test system: LOX IMVI melanoma
# RPMI-8226 leukemia = test system: RPMI-8226 leukemia
# UACC-62 melanoma = test system: UACC-62 melanoma
structure (smiles),measurement,setting,value
Cn1ncc(C#N)c1-c1ccc2c(c1)CN([C@H](CN)Cc1cccc(F)c1)C2=O,TGI,HCT-15 colon,> 100 µM
same,GI50,SF-539 CNS,0.394 µM
same,TGI,SF-539 CNS,33.4 µM
same,GI50,OVCAR-3 ovarian,11.8 µM
same,TGI,OVCAR-3 ovarian,32.4 µM
same,GI50,IGROV1 ovarian,0.0552 µM
same,TGI,IGROV1 ovarian,10.4 µM
same,GI50,T-47D breast,0.0502 µM
same,TGI,T-47D breast,19.5 µM
same,GI50,KM12 colon,0.841 µM
same,TGI,KM12 colon,20.4 µM
same,GI50,CCRF-CEM leukemia,0.675 µM
same,TGI,CCRF-CEM leukemia,14.6 µM
same,GI50,M14 melanoma,11.2 µM
same,TGI,M14 melanoma,26.8 µM
same,GI50,ACHN renal,17.3 µM
same,TGI,ACHN renal,93.9 µM
same,GI50,PC-3 prostate,0.436 µM
same,TGI,PC-3 prostate,16.7 µM
same,GI50,MOLT-4 leukemia,0.129 µM
same,TGI,MOLT-4 leukemia,2.38 µM
same,GI50,COLO 205 colon,4.91 µM
same,TGI,COLO 205 colon,25.4 µM
same,GI50,A549 NSCLC,12.2 µM
same,TGI,A549 NSCLC,75.1 µM
same,GI50,UO-31 renal,13.4 µM
same,TGI,UO-31 renal,46.7 µM
same,GI50,SK-MEL-5 melanoma,6.5 µM
same,TGI,SK-MEL-5 melanoma,20 µM
same,GI50,MDA-MB-231 breast,21.8 µM
same,TGI,MDA-MB-231 breast,74.7 µM
same,GI50,NCI-H460 NSCLC,0.582 µM
same,TGI,NCI-H460 NSCLC,33.3 µM
same,GI50,HOP-62 NSCLC,23 µM
same,TGI,HOP-62 NSCLC,71.1 µM
same,GI50,SNB-75 CNS,0.299 µM
same,TGI,SNB-75 CNS,14 µM
same,GI50,MALME-3M melanoma,1.76 µM
same,TGI,MALME-3M melanoma,14.8 µM
same,GI50,UACC-257 melanoma,12.5 µM
same,TGI,UACC-257 melanoma,31.1 µM
same,GI50,HCC-2998 colon,11 µM
same,TGI,HCC-2998 colon,47.2 µM
same,GI50,MCF7 breast,0.498 µM
same,TGI,MCF7 breast,16.3 µM
same,GI50,NCI-H322M lung,16.9 µM
same,TGI,NCI-H322M lung,70.2 µM
same,GI50,SN12C renal,17.6 µM
same,TGI,SN12C renal,65.9 µM
same,GI50,NCI-H23 lung,14.6 µM
same,TGI,NCI-H23 lung,34.8 µM
same,GI50,LOX IMVI melanoma,27.6 µM
same,TGI,LOX IMVI melanoma,> 100 µM
same,GI50,RPMI-8226 leukemia,12.9 µM
same,TGI,RPMI-8226 leukemia,26.1 µM
same,GI50,UACC-62 melanoma,4.27 µM
same,TGI,UACC-62 melanoma,19.8 µM

# Source: PubChem BioAssay (NCI)
